Earlier results in US20050255458A1, “Drug discovery assays based on the biology of chronic disease” (priority 2002, published 2005).
Counter-ions that a name gives are not always drawn. Like-named read-outs stand apart in the source and are kept apart here.

Tests used:
ERK1 and ERK2 = settings: cited from earlier work; for MAPK activation: Wen 1996, Rao 1994
AT1-receptor = target: T1, AT1-receptor (Oryctolagus cuniculus, UniProt P34976); settings: cited from earlier work
T1 construct: from tissue; host or cells: whole animal: Watanabe and New Zealand White rabbits
T1 sequence (P34976 1-359): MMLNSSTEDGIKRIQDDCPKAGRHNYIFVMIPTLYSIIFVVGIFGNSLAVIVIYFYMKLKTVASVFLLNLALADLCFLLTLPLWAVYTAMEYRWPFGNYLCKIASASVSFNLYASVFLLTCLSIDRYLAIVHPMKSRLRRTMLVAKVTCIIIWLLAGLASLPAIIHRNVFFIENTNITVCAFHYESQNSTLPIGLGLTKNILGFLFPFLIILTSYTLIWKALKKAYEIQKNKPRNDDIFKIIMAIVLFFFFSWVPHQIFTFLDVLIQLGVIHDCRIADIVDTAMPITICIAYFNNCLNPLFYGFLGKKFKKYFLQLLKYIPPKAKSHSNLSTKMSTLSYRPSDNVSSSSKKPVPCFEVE

GABP = settings: 3T3 cells treated 2 h; single and double N-box probes; cited from earlier work
double N-box-TATA-Luc = settings: cited from earlier work; for decrease in luciferase expression: double N-box-TATA-Luc
apoE(−/−) mice = settings: 48 hours post injection; cited from earlier work
AR gene = settings: LNCaP; cited from earlier work
ERK [1] = settings: SW-13 human adrenal carcinoma; cited from earlier work
anagen hair follicles = settings: Kondo 1990; cited from earlier work
[2] = system: hair follicles (onset of anagen); settings: topical 10 nmol twice weekly, female CD-1 mice; cited from earlier work
papilla cells = settings: cited from earlier work
DC = settings: inhaled; cited from earlier work
NF-κB [3] = settings: cited from earlier work
[4] = system: hamsters on a high-cholesterol diet; settings: 8 weeks, cited from earlier work
TF [5] = settings: cited from earlier work
ACE = target: T2, ACE (Mesocricetus auratus, UniProt Q50JE5); settings: cited from earlier work
T2 construct: from tissue; host or cells: whole animal, in vivo (hamster)
T2 sequence (Q50JE5 36-1314): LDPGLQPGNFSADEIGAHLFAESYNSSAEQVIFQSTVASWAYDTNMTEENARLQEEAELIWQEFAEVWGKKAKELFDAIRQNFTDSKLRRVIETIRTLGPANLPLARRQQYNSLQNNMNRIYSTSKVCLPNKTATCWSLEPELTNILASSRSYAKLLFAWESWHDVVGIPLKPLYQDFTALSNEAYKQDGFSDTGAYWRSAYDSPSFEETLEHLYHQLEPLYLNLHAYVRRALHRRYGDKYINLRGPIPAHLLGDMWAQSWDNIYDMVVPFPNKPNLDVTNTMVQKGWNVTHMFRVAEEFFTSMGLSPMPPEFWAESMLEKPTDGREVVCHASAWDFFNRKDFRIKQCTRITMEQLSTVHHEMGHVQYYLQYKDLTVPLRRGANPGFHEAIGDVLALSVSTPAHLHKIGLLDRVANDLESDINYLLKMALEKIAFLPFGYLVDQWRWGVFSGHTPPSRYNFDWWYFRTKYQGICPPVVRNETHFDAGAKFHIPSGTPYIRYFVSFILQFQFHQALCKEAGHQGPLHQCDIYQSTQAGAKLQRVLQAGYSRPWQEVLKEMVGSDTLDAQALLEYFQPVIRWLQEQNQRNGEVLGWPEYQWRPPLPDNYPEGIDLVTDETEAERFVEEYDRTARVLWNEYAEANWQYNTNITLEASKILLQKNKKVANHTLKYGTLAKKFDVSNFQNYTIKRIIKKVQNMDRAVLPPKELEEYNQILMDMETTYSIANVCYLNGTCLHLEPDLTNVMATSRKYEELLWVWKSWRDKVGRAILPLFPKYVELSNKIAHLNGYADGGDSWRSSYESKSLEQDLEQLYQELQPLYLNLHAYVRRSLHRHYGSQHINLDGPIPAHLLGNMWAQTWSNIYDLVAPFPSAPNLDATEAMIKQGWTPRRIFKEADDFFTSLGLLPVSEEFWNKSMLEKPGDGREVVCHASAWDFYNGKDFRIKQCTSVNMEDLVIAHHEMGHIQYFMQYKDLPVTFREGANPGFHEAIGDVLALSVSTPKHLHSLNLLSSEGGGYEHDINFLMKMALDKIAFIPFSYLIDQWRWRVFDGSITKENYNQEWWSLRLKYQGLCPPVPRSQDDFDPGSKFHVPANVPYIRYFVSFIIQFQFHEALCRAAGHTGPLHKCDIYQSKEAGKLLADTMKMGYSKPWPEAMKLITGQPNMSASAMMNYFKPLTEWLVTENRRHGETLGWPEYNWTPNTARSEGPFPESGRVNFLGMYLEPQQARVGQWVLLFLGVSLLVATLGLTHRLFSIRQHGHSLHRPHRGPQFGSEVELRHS

TF [6] = settings: cited from earlier work; remark: listed apart in the source
[7] = system: abdominal subcutaneous adipocytes; settings: obese vs non-obese (Hellstrom 2000); cited from earlier work
ERK [8] = settings: adipocytes; cited from earlier work
ERK [9] = settings: Jurkat cells; cited from earlier work
[10] = system: ocular melanoma cell lines; settings: cited from earlier work
NF-κB [11] = settings: various cells and tissues; cited from earlier work
apo(a) transgenic mice = settings: 12 weeks; cited from earlier work
fibronectin = settings: cited from earlier work
20-3 cells = settings: cited from earlier work

CCCCC/C=C\C[C@H](O)/C=C/C=C\C/C=C\CCCC(=O)O [12-HETE]
MAPK activation (ERK1 and ERK2): activation of MAPK

CCCCC[C@H](O)/C=C/C=C\C/C=C\C/C=C\CCCC(=O)O [15-HETE]
MAPK activation (ERK1 and ERK2): activation of MAPK

O=C(O)CCC/C=C\C/C=C\C/C=C\C/C=C\CCCCCO [20-HETE, 20-hydroxyeicosatetraenoic acid]
ERK1 and ERK2 activation (ERK1 and ERK2; 0.25 μM, 10 min): activated ERK1 and ERK2

CCCCc1cc(C(=O)OC)cc(=O)n1Cc1ccc(-c2ccccc2-c2nnn[nH]2)cc1F [Bay 10-6734]
fat-stained area in the aorta (AT1-receptor; 25 mg/kg/day, high-cholesterol diet): 5.3±1.4% | % of macrophage stained area/total plaque cross sectional area (AT1-receptor; 25 mg/kg/day): 1±0.2% | cholesterol levels (AT1-receptor; hyperlipidemic or control animals): did not change the cholesterol levels

CCOC(=O)/C=C\C(=O)OCC [DEM, diethyl maleate]
GABP DNA binding activity (EMSA) (GABP): decreased formation | luciferase expression from C/EBP-TA-Luc (double N-box-TATA-Luc; 6 or 8 h treatment): no effect | decrease in luciferase expression (double N-box-TATA-Luc; 6 h): 28% | decrease in luciferase expression (double N-box-TATA-Luc; 8 h): 62%

CCCCCCCCCCCCCCCC(=O)OC[C@H](COP(=O)([O-])OCC[N+](C)(C)C)OC(=O)CCCCCCCCCCCCCCC [DPPC, dipalmitoylphosphatidylcholine]
lipid content of aortic sinus (apoE(−/−) mice): 18.1±4.7 % of plaque area | macrophage content of aortic sinus (apoE(−/−) mice): 9.3±5.8 % of plaque area

C[C@]12CC[C@H]3[C@@H](CCC4=CC(=O)CC[C@@]43C)[C@@H]1CC[C@@H]2O [Testosterone]
Effect on [mRNAAR] (AR gene): ↓[mRNAAR] | Effect on [ERK^phos] (ERK [1]): ↑[ERK^phos] | growth of isolated hair follicles (anagen hair follicles): growth inhibition | delay in hair regrowth [2]: small delay | papilla cell proliferation (papilla cells; 345 nM, 14 days): significantly decreased papilla cell proliferation | dermal papilla cell proliferation (papilla cells; 10^−10 to 10^−7 M, alone or co-cultured (Obana 1997)): no effect | concentrations with no significant effect on papilla cell proliferation (papilla cells; Kiesewetter 1993): lower than 173 nM

CCC(=O)OCC(=O)[C@@]1(OC(=O)CC)[C@@H](C)C[C@H]2[C@@H]3CCC4=CC(=O)C=C[C@]4(C)[C@@]3(Cl)[C@@H](O)C[C@@]21C [beclomethasone dipropionate]
number of DC in asthma (DC): decreased the excessive number of DCs in asthma | NF-κB activation (NF-κB [3]): decreases NF-κB activation

C[C@H](CS)C(=O)N1CCC[C@H]1C(=O)O [captopril]
cell size of macrophage derived foam cells [4]: did not change the cell size | decrease of fatty streak area [4]: 35% | heart rate [4]: 348±6 beats/min | mean arterial pressure [4]: 110±5 mm Hg | subendothelial number of macrophage derived foam cells in the aortic arch [4]: 108±10 cells/mm^2 | plasma total cholesterol ([4]; pravastatin 34, captopril 100 mg/kg/day): did not change plasma lipids | level of TF antigen and mRNA in the cultured cells (TF [5]): decreased the level of TF antigen and mRNA | decrease in HDL (ACE; 100 mg/kg/day, 6 weeks, vs week 3 and 4): 24% | number of subendothelial macrophage derived foam cells (ACE; 100 mg/kg/day, after 6 weeks of treatment): 52±9 cell/mm^2 | area of extracellular lipid particles (ACE; after 6 weeks of treatment): 157±36 μm2×1,000 | area of fatty streak (ACE; after 6 weeks of treatment): 55±12 μm2×1,000 | average size of a foam cell (ACE; after 6 weeks of treatment): 89±5 μm^2 | nuclear translocation of c-Rel/p65 induced by endotoxin (TF [6]; 20 μg/mL): almost completely inhibited | TF activity (TF [6]; dose-dependent): decreased TF activity

CCCC(=O)Nc1ncnc2c1ncn2[C@@H]1O[C@@H]2COP(=O)(O)O[C@H]2[C@H]1OC(=O)CCC [dibutyryl cAMP, dibutyryl cyclic AMP]
decrease in maximum induced glycerol release [7]: 50% | ERK activation (ERK [8]): activated ERK

C[C@H](CCC(=O)O)C[C@H](C)C[C@H](C)C(=O)/C=C(\O)[C@H](C)C[C@H](C)C/C=C/[C@@H](C)[C@@H](O)[C@@H](C)[C@@H](O)C[C@@H]1CC[C@@](C)([C@H]2CC[C@@](C)([C@@H](C)O)O2)O1 [ionomycin]
ERK phosphorylation (ERK [9]): increased ERK phosphorylation | cell attachment to plates coated with fibronectin and other matrix proteins [10]: Significant inhibition

CC[C@H](C)C(=O)O[C@H]1CCC=C2C=C[C@H](C)[C@H](CC[C@@H]3C[C@@H](O)CC(=O)O3)[C@H]21 [mevastatin]
NF-κB activation (NF-κB [11]): inhibited NF-κB activation

O=C(O)C[C@H](O)C[C@H](O)/C=C/c1c(C2CC2)nc2ccccc2c1-c1ccc(F)cc1 [pitavastatin]
NF-κB activation (NF-κB [11]): inhibited NF-κB activation

CC/C(=C(\c1ccccc1)c1ccc(OCCN(C)C)cc1)c1ccccc1 [tamoxifen]
decrease of area of focal apo(a) accumulation (apo(a) transgenic mice): 97% | decrease of average level of apo(a) in the vessel wall (apo(a) transgenic mice): 69% | decrease of lesion area (apo(a) transgenic mice): 92% | decrease of number of lipid lesions (apo(a) transgenic mice): 80% | cell attachment to plates coated with fibronectin and other matrix proteins [10]: significant inhibition of cell attachment

NCCCCCC(=O)O [ε-ACA]
Lp(a) binding to fibronectin (fibronectin): not effective against Lp(a) binding to fibronectin | binding of plasminogen to fibronectin (fibronectin): inhibited binding of plasminogen to fibronectin

TGFβ1: transforming growth factor-β1
labeling index after treatment (20-3 cells; 5 ng/ml, 72 h, permissive temperature (from 95%)): 80% | labeling index after treatment (20-3 cells; 72 h non-permissive then 24 h permissive (from 60%)): below 10% | labeling index after treatment (20-3 cells; non-permissive temperature (from 20%)): less than 5%
